Assay results: ChEMBL document CHEMBL2034963, “Synthesis and pharmacological assessment of diversely substituted pyrazolo[3,4-b]quinoline, and benzo[b]pyrazolo[4,3-g][1,8]naphthyridine derivatives” (Eur J Med Chem, 2011)
Activity calls are given as the source filed them. The calls are words filed in the database; no cut-off is given here.

Columns and labels:
Acetylcholinesterase [1] = molecular target: T1, Acetylcholinesterase (Electrophorus electricus, UniProt O42275); test: Mixed type inhibition of electric eel AChE using acetylthiocholine as substrate by Lineweaver-Burk plot analysis
SH-SY5Y [2] = test: Neuroprotective activity in rotenone/oligomycin-induced cell death in human SH-SY5Y cells assessed as LDH release at 1 uM pretreated for 1 hr before rotenone/oligomycin challenge measured after 24 hrs by spectrophotometric method (reference value: 13 %); assay type: functional
SH-SY5Y [3] = test: Neuroprotective activity in okadaic acid-induced cell death in human SH-SY5Y cells at 1 uM after 24 hrs by MTT method; assay type: functional, cell-based
Acetylcholinesterase [4] = molecular target: T1, Acetylcholinesterase
Description: Inhibition of electric eel AChE preincubated for 10 mins measured after 15 mins by Ellman's method

Cholinesterase = Cholinesterase (Equus caballus, UniProt P81908)
Description: Inhibition of Equus caballus BChE preincubated for 10 mins measured after 15 mins by Ellman's method

SH-SY5Y [5] = test: Neuroprotective activity in rotenone/oligomycin-induced cell death in human SH-SY5Y cells assessed as LDH release at 10 nM pretreated for 1 hr before rotenone/oligomycin challenge measured after 24 hrs by spectrophotometric method (reference value: 13 %); assay type: functional

Chain of Cholinesterase (P81908 whole entry): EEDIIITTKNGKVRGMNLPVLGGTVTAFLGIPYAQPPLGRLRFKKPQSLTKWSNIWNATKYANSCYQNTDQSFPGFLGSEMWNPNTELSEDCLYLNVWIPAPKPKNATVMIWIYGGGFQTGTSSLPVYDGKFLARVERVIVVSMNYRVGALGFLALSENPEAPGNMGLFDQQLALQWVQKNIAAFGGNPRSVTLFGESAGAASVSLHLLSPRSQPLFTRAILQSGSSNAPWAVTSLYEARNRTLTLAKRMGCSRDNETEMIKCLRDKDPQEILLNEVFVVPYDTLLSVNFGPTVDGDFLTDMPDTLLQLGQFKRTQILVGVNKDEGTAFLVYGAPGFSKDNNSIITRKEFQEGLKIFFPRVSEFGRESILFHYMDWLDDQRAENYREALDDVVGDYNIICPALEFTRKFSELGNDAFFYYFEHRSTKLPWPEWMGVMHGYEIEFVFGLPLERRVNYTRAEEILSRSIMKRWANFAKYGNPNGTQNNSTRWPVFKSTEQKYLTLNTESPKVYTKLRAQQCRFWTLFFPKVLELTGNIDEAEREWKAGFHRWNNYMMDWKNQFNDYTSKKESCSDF
T1 sequence (O42275 whole entry): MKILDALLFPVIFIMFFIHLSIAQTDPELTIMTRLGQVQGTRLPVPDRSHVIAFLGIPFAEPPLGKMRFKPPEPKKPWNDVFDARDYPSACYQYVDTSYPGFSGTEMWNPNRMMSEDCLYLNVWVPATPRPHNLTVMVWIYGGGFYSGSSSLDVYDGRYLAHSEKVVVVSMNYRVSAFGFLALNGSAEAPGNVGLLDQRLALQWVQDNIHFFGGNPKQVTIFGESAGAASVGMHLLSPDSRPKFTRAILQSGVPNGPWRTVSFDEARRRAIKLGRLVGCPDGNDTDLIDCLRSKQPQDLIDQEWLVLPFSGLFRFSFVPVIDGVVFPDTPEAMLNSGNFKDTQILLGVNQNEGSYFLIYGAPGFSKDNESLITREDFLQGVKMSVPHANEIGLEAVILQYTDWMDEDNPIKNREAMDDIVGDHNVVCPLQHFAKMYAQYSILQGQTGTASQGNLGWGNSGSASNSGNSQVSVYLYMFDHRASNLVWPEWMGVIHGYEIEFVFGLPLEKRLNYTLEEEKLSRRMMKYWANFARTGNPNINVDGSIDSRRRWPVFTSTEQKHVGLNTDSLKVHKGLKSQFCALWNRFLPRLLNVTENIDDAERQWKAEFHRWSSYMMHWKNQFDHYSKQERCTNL

Row | SMILES | Ki (Acetylcholinesterase [1]) [µM] | Activity (SH-SY5Y [2]) [%] | Activity (SH-SY5Y [3]) | IC50 (Acetylcholinesterase [4]) [µM] | IC50 (Cholinesterase) [µM] | Activity (SH-SY5Y [5]) [%]
1 | CC(=O)Nc1nn(C)c2nc3nc4c(c(N)c3cc12)CCCC4 | 0.155 | 48 | inactive | 0.069 | 6.3 | –
2 | CC(=O)Nc1nn(C)c2nc3nc4c(c(N)c3c(-c3ccccc3)c12)CCCC4 | – | – | – | 0.23 | 9 | –
3 | COc1ccc2[nH]cc(CCNC(C)=O)c2c1 [MELATONIN] | – | – | – | – | – | 48
4 | Cn1nc(C#N)c2c(N)c3c(nc21)CCCC3 | – | – | – | 1.7 | 6.3 | –
5 | Cn1nc2nc3c(c(N)c2c1C#N)CCCC3 | – | – | – | 0.57 | 100 | –
6 | Cn1nc2nc3c(c(N)c2c1C(N)=O)CCCC3 | – | – | – | 0.6 | 5.4 | –
7 | Cn1nc(C(N)=O)c2c(NCCCCCCOc3ccccc3)c3c(nc21)CCCC3 | – | – | – | 9.3 | > 100 | –
